Patent US10611740B2, “Aryl dihydro-2H-benzo[b][1,4]oxazine sulfonamide and related compounds for use as agonists of RORγ and the treatment of disease” (Lycera Corporation, priority 2015, dated 2020)

target: T1, Gal4-RORγ-LBD (Homo sapiens, UniProt P51449); experiment: Gal4-RORγ Luciferase Reporter Assay in HEK-293T Cells; format: cell-based; conditions: HEK-293 cells, 2 μM ursolic acid
T1 construct: expressed in transfected cells; host or cells: HEK-293 cells (pcDNA3.1neo plasmid)
T1 sequence (P51449 269-508 limits assumed): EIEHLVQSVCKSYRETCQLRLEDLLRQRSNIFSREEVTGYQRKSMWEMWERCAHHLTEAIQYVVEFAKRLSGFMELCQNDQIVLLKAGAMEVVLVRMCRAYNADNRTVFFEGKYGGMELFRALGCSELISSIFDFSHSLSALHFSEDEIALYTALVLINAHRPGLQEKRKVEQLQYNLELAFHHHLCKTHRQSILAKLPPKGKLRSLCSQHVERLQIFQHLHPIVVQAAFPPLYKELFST
Description: Assay procedures and results are described below.
In the following protocol, HEK-293 cells were transfected with a construct comprising the Gal4 DNA binding domain fused to the ligand binding domain of RORγ (Gal4-RORγ-LBD) in a pcDNA3.1neo plasmid, and also with a reporter construct comprising pGL4.31 Gal4-luciferase (Promega). Control cells were prepared similarly using empty pcDNA3.1neo and pGL4.31 vectors.
Trans-IT reagent (Mirus, 60 μL) at room temperature was added drop wise to OptiMEM (Invitrogen, 1.5 ml). This reagent mixture was mixed by inversion then incubated for 5 to 30 minutes at room temperature. It then was added to a solution of both expression vectors (5 μg each), mixed, and incubated at room temperature for about 20 minutes. HEK-293 cells were harvested from incubation flasks by removing the media, treating with TrypLE Express (Invitrogen), and incubating until the cells detached from the bottom of the flask (approximately 2-5 minutes). 10 Million cells were collected by centrifugation and re-suspended in 10 mL of Dulbecco's Modified Eagle Medium, High Glucose (DMEM, Invitrogen) containing 10% Fetal Bovine Serum and 100 IU each of penicillin and streptomycin. The re-suspended cells and the transfection mixture were added to a T75 flask, mixed and incubated overnight at 37° C. and 5% CO2.
The cells were harvested as described above, counted, and centrifuged to obtain the desired number of cells, then re-suspended in complete growth media at 0.75×10^6 cells/mL. The RORγ antagonist, ursolic acid, was added to the cells at a final concentration of 2 μM. Cells were plated at 20 μL of cell suspension/well (10,000-15,000 cells/well) in white tissue culture treated 384 well plates. Test compounds were dissolved at 10 mM in DMSO then diluted into complete growth medium to 5× the final intended test concentration. These drug stock solutions, 5 μL/well were added to the tissue culture plate. The final DMSO concentration was 0.2%. The plates were briefly centrifuged then incubated overnight at 37° C. and 5% CO2. To conduct the assay, the tissue culture plates were allowed to equilibrate to room temperature and One-Glo luciferase reagent (Promega, 25 μL/well) was added. The plates were briefly centrifuged then incubated at room temperature for 10 minutes. The luciferase intensity was read on an Envision plate reader (Perkin Elmer). […] The luciferase signal in the absence of ursolic acid or test compound is defined at 100. The Max Response is the upper plateau in the signal as determined by line-fit using a 4-parameter logistic model in PRISM (GraphPad).

EC50 [µM] | SMILES | Gal4-RORγ Assay Max Response
< 0.5 | O=C(O)C1(C[C@H]2CN(S(=O)(=O)c3cccc(C(F)(F)F)c3)c3cc(-c4cccc(F)c4Cl)ccc3O2)CCOCC1 [Compound 78M, (S)-4-((6-(2-chloro-3-fluoro-phenyl)-4-((3-(trifluoromethyl)-phenyl)sulfonyl)-3,4-dihydro-2H-benzo[b][1,4]oxazin-2-yl)methyl)tetrahydro-2H-pyran-4-carboxylic acid] | *** (The symbol “***” indicates a value in the range of greater than 150 to 200)
< 0.5 | O=C(O)C1(C[C@H]2CN(S(=O)(=O)c3cccc(C(F)(F)F)c3)c3cc(-c4cc(F)cc(F)c4)ccc3O2)CCOCC1 [Compound 78N, (S)-4-((6-(3,5-difluorophenyl)-4-((3-(trifluoromethyl)phenyl)-sulfonyl)-3,4-dihydro-2H-benzo[b][1,4]oxazin-2-yl)methyl)tetrahydro-2H-pyran-4-carboxylic acid] | ** (The symbol “**” indicates a value in the range of greater than 90 to 150)
< 0.5 | O=C(O)C1(C[C@H]2CN(S(=O)(=O)c3cccc(C(F)(F)F)c3)c3cc(-c4cc(F)cc(C(F)(F)F)c4)ccc3O2)CCOCC1 [Compound 78O, (S)-4-((6-(3-fluoro-5-(trifluoro-methyl)phenyl)-4-((3-(trifluoro-methyl)phenyl)sulfonyl)-3,4-dihydro-2H-benzo[b][1,4]oxazin-2-yl)methyl)tetrahydro-2H-pyran-4-carboxylic acid] | ** (The symbol “**” indicates a value in the range of greater than 90 to 150)
< 0.5 | O=C(O)C1(C[C@H]2CN(S(=O)(=O)c3cccc(C(F)(F)F)c3)c3cc(-c4cccc(F)c4F)ccc3O2)CCOCC1 [Compound 78P, (S)-4-((6-(2,3-difluorophenyl)-4-((3-(trifluoromethyl)phenyl)-sulfonyl)-3,4-dihydro-2H-benzo[b][1,4]oxazin-2-yl)methyl)tetrahydro-2H-pyran-4-carboxylic acid] | ** (The symbol “**” indicates a value in the range of greater than 90 to 150)
< 0.5 | Cc1cc(F)cc(-c2ccc3c(c2)N(S(=O)(=O)c2cccc(C(F)(F)F)c2)C[C@H](CC2(C(=O)O)CCOCC2)O3)c1 [Compound 78Q, (S)-4-((6-(3-fluoro-5-methyl-phenyl)-4-((3-(trifluoromethyl)-phenyl)sulfonyl)-3,4-dihydro-2H-benzo[b][1,4]oxazin-2-yl)methyl)tetrahydro-2H-pyran-4-carboxylic acid] | ** (The symbol “**” indicates a value in the range of greater than 90 to 150)
< 0.5 | COc1cc(F)cc(-c2ccc3c(c2)N(S(=O)(=O)c2cccc(C(F)(F)F)c2)C[C@H](CC2(C(=O)O)CCOCC2)O3)c1 [Compound 78R, (S)-4-((6-(3-fluoro-5-methoxy-phenyl)-4-((3-(trifluoromethyl)-phenyl)sulfonyl)-3,4-dihydro-2H-benzo[b][1,4]oxazin-2-yl)methyl)tetrahydro-2H-pyran-4-carboxylic acid] | ** (The symbol “**” indicates a value in the range of greater than 90 to 150)
< 0.5 | COc1cc(F)cc(-c2ccc3c(c2)N(S(=O)(=O)c2cccc(C(F)(F)F)c2)C[C@H](CC2(C(=O)O)CCOCC2)O3)c1F [Compound 78S, (S)-4-((6-(2,5-difluoro-3-methoxyphenyl)-4-((3-(trifluoro-methyl)phenyl)sulfonyl)-3,4-dihydro-2H-benzo[b][1,4]oxazin-2-yl)methyl)tetrahydro-2H-pyran-4-carboxylic acid] | ** (The symbol “**” indicates a value in the range of greater than 90 to 150)
< 0.5 | O=C(O)C1(C[C@H]2CN(S(=O)(=O)c3cccc(C(F)(F)F)c3)c3cc(-c4cc(F)cc(F)c4F)ccc3O2)CCOCC1 [Compound 78T, (S)-4-((4-((3-(trifluoromethyl)-phenyl)sulfonyl)-6-(2,3,5-trifluorophenyl)-3,4-dihydro-2H-benzo[b][1,4]oxazin-2-yl)methyl)tetrahydro-2H-pyran-4-carboxylic acid] | ** (The symbol “**” indicates a value in the range of greater than 90 to 150)
< 0.5 | COc1cc(F)c(F)c(-c2ccc3c(c2)N(S(=O)(=O)c2cccc(C(F)(F)F)c2)C[C@H](CC2(C(=O)O)CCOCC2)O3)c1 [Compound 78U, (S)-4-((6-(2,3-difluoro-5-methoxyphenyl)-4-((3-(trifluoromethyl)phenyl)sulfonyl)-3,4-dihydro-2H-benzo[b][1,4]oxazin-2-yl)methyl)tetrahydro-2H-pyran-4-carboxylic acid] | ** (The symbol “**” indicates a value in the range of greater than 90 to 150)
< 0.5 | O=C(O)C1(C[C@H]2CN(S(=O)(=O)c3cccc(C(F)(F)F)c3)c3cc(-c4cc(F)cc(OC(F)F)c4F)ccc3O2)CCOCC1 [Compound 78V, (S)-4-((6-(3-(difluoromethoxy)-2,5-difluorophenyl)-4-((3-(trifluoromethyl)phenyl)sulfonyl)-3,4-dihydro-2H-benzo[b][1,4]oxazin-2-yl)methyl)tetrahydro-2H-pyran-4-carboxylic acid] | ** (The symbol “**” indicates a value in the range of greater than 90 to 150)
< 0.5 | O=C(O)C1(C[C@H]2CN(S(=O)(=O)c3cccc(C(F)(F)F)c3)c3cc(-c4cc(Cl)cc(F)c4F)ccc3O2)CCOCC1 [Compound 78W, (S)-4-((6-(5-chloro-2,3-difluorophenyl)-4-((3-(trifluoromethyl)phenyl)sulfonyl)-3,4-dihydro-2H-benzo[b][1,4]oxazin-2-yl)methyl)tetrahydro-2H-pyran-4-carboxylic acid] | ** (The symbol “**” indicates a value in the range of greater than 90 to 150)
0.5 to 5 | O=C(O)CO[C@@H]1Cc2ccc(-c3cc(F)ccc3F)cc2N(S(=O)(=O)c2cccc(C(F)(F)F)c2)C1 [Compound 82, (R)-2-((7-(2,5-difluorophenyl)-1-((3-(trifluoromethyl)phenyl)sulfonyl)-1,2,3,4-tetrahydroquinolin-3-yl)oxy)acetic acid] | ** (The symbol “**” indicates a value in the range of greater than 90 to 150)
0.5 to 5 | CC(C)(O[C@@H]1Cc2ccc(-c3cc(F)ccc3F)cc2N(S(=O)(=O)c2cccc(C(F)(F)F)c2)C1)C(=O)O [Compound 83B, (R)-2-((7-(2,5-difluorophenyl)-1-((3-(trifluoromethyl)phenyl)sulfonyl)-1,2,3,4-tetrahydroquinolin-3-yl)oxy)-2-methylpropanoic acid] | ** (The symbol “**” indicates a value in the range of greater than 90 to 150)
0.5 to 5 | CC(C)(O[C@H]1Cc2ccc(-c3cc(F)ccc3F)cc2N(S(=O)(=O)c2cccc(C(F)(F)F)c2)C1)C(=O)O [Compound 83C, (S)-2-((7-(2,5-difluorophenyl)-1-((3-(trifluoromethyl)phenyl)sulfonyl)-1,2,3,4-tetrahydroquinolin-3-yl)oxy)-2-methylpropanoic acid] | ** (The symbol “**” indicates a value in the range of greater than 90 to 150)
